{
  "source": "patent US20160317654A1",
  "about": "“COMBINATION THERAPY WITH RAR ALPHA AGONISTS FOR ENHANCING TH1 RESPONSE” (King's College London, priority 2015, published 2016)",
  "system": "fully committed Th1 cells",
  "experiment": "Secondary repolarisation of sorted IFN-γ (eYFP+) Th1 cells under Th1 conditions in the presence of RAR inhibitor or vehicle",
  "assay_type": "cell-based, mouse",
  "conditions": "IFN-γ (eYFP+) Th1 cells sorted day 7, restimulated under Th1 conditions for 5 days with LE540 (1 μM) vs vehicle (DMSO)",
  "procedure": "Experimental conditions were as follows. Naïve CD4^+CD25^negCD44^loCD62L^hi T-cells were isolated by cell sorting by FACSAria (BD) after enrichment with a CD4^+ T-cell negative selection kit (Miltenyi Biotec). T-cell depleted splenocytes were prepared using a CD3^+ microbead selection kit (Miltenyi Biotec) followed by irradiation at 3000 rad. Naïve CD4+ T-cells were cultured for 3 days with irradiated T-cell-depleted splenocytes at a ratio of 1:5 in the presence of 5 μg/ml of anti-CD3 (145-2C11) under Th0 cell conditions (IL-2 100 IU/ml, anti-IL-4 (11B11) and anti-IFN-γ (XMG 1.2), 10 μg/ml each); Th1 cell conditions (100 IU/ml of IL-2, 10 ng/ml of IL-12, and anti-IL-4); Th2 cell conditions (100 IU/ml of IL-2, 10 ng/ml of IL-4, anti-IL-12 (C17.8), and anti-IFN-γ (XMG 1.2); or Th17 cell conditions, 5 ng/ml TGFβ, 20 ng/ml IL-6, 10 ng/ml IL-1β, anti-IL-4, and anti-IFN-γ). Cells were expanded for an additional 3-4 days. Where indicated, 10 ng/ml IFN-γ or 10 μg/ml anti-IFN-γ was added. In secondary repolarisation assays, where specified, LE540 (1 μM) or DMSO (vehicle control) was added to the media. Cytokines were from R&D. Anti-CD3 was from BioXcell and other antibodies were from BD Biosciences. All cell cultures were performed in complete RPMI containing 10% fetal bovine serum (FBS), 55 µM β-mercaptoethanol, HEPES, non-essential amino acids, glutamine, penicillin and streptomycin.\nFor analysis of cytokine production, cells were restimulated with 100 ng/ml phorbol 12-myristate 13-acetate (PMA) and 500 ng/ml ionomycin in the presence of monensin for 4-5 h at 37° C. in a tissue culture incubator. Cell surface staining was carried out in PBS with 2% FBS. For live cell analysis or cell sorting, dead cells were excluded by staining with SYTOX blue (Invitrogen). […] Data were collected with a LSR Fortessa (BD) and results were analyzed with FlowJo software (Tree Star). […]",
  "data": [
    {"smiles": "CN1c2cc3c(cc2N=C(c2ccc(C(=O)O)cc2)c2ccc4ccccc4c21)C(C)(C)CCC3(C)C", "note": "[LE540]", "values": [
      {"measurement": "Intracellular IFN-γ expression following PMA and ionomycin stimulation", "setting": "FIG. 12B", "result": "modest reductions in IFN-γ expression"},
      {"measurement": "Intracellular expression of RORγt", "setting": "flow cytometry, FIG. 4B", "result": "emergence of cells co-expressing RORγt"},
      {"measurement": "Intracellular expression of T-bet", "setting": "flow cytometry, FIG. 4B", "result": "down-regulation of T-bet"}
    ]}
  ]
}
